In patent US20170050957A1, “4-AMINO-6-(HETEROCYCLIC)PICOLINATES AND 6-AMINO-2-(HETEROCYCLIC)PYRIMIDINE-4-CARBOXYLATES AND THEIR USE AS HERBICIDES” (Dow AgroSciences LLC, priority 2013, published 2017):
Like-named read-outs stand apart in the source and are kept apart here.

Legend:
Format in all cases: in vivo
[1] = test system: sunflower (Helianthus annuus); assay: Post-emergent Test I herbicidal activity; conditions: 4 Kg ai/ha
Procedure: (§1) Post-emergent Test I Seeds test species were obtained from commercial suppliers and planted into a 5″-round pot containing soil-less media mix (metro-mix 360®, Sun Gro Horticulture). Postemergence treatments were planted 8-12 days prior to application and cultured in a greenhouse equipped with supplemental light sources to provide a 16 h photoperiod at 24-29° C. All pots were surface irrigated. Approximately 10 milligrams (mg) of each compound were dissolved in 1.3 mL acetone-DMSO (97:3, v/v) and diluted with 4.1 mL water-isopropanol-crop oil concentrate (78:20:2, v/v/v) containing 0.02% Triton X-155. Treatments were serial diluted with the above formulation solvent to provide 1.85, 0.926, 0.462 and 0.231 mg/mL of test compound delivered in 2.7 mL/pot (roughly equivalent to 4.0, 2.0, 1.0, and 0.5 kg/ha, respectively). Formulated compounds were applied using a DeVilbiss® compressed air sprayer at 2-4 psi. Following treatment, pots were returned to the greenhouse for the duration of the experiment. All pots were sub-irrigated as need to provide optimum growing conditions. All pots were fertilized one time per week by subirrigating with Peters Peat-Lite Special® fertilizer (20-10-20). Phytotoxicity ratings were obtained 10 days after treatment postemergence applications. All evaluations were made visually on a scale of 0 to 100 where 0 represents no activity and 100 represents complete plant death. Visual assessments of plant injury were made based on growth reduction, discoloration, leaf deformity and necrosis

[2] = test system: giant foxtail (Setaria faberi); assay: Post-emergent Test I herbicidal activity; conditions: 4 Kg ai/ha
Procedure: as §1

wild oats (Avena fatua) = assay: Post-emergent Test I herbicidal activity; conditions: 4 Kg ai/ha
Procedure: as §1

[3] = test system: barnyardgrass (Echinochloa crus-galli); assay: Post-emergent Test I herbicidal activity; conditions: 4 Kg ai/ha
Procedure: as §1

[4] = test system: Key Broadleaf Weed and Crop Species; assay: Post-emergent Test II herbicidal activity (Table 15); conditions: post-emergence, 336 h, 14 d; for pest or weed control at 35 g/ha: 35 g ai/ha; for pest or weed control at 70 g/ha: 70 g ai/ha; for pest or weed control at 280 g/ha: 280 g ai/ha
Procedure, shortened: (§2)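 Plants grown in greenhouse (~15 h photoperiod, 23-29 °C day, 22-28 °C night) to first or second true leaf stage, then sprayed post-emergence at 187 L/ha with a high rate and 1/2×, 1/4×, 1/8× and 1/16× dilutions. Injury scored visually after 14 d, 0-100% versus untreated plants.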

[5] = test system: Key Grass and Sedge Weeds as well as Grass Crops; assay: Post-emergent Test II herbicidal activity (Table 16); conditions: post-emergence, 336 h, 14 d; for pest or weed control at 35 g/ha: 35 g ai/ha; for pest or weed control at 70 g/ha: 70 g ai/ha; for pest or weed control at 140 g/ha: 140 g ai/ha; for pest or weed control at 280 g/ha: 280 g ai/ha
Procedure, shortened: as §2

[6] = Abutilon theophrasti, velvetleaf (Abutilon theophrasti), read-out: Visual Growth Reduction (%) 14 Days After Application, ABUTH
[7] = Amaranthus retroflexus, redroot pigweed (Amaranthus retroflexus), read-out: Visual Growth Reduction (%) 14 Days After Application, AMARE
[8] = Brassica napus, oilseed rape, canola (Brassica napus), read-out: Visual Growth Reduction (%) 14 Days After Application, BRSNN
[9] = Chenopodium album, lambsquarters (Chenopodium album), read-out: Visual Growth Reduction (%) 14 Days After Application, CHEAL
[10] = Euphorbia heterophylla, wild poinsettia (Euphorbia heterophylla), read-out: Visual Growth Reduction (%) 14 Days After Application, EPHHL
[11] = Helianthus annuus, sunflower (Helianthus annuus), read-out: Visual Growth Reduction (%) 14 Days After Application, HELAN
[12] = Cyperus esculentus, yellow nutsedge (Cyperus esculentus), read-out: Visual Growth Reduction (%) 14 Days After Application, CYPES
[13] = Echinochloa crus-galli, barnyardgrass (Echinochloa crus-galli), read-out: Visual Growth Reduction (%) 14 Days After Application, ECHCG
[14] = Oryza sativa, rice (Oryza sativa), read-out: Visual Growth Reduction (%) 14 Days After Application, ORYSA
[15] = Setaria faberi, giant foxtail (Setaria faberi), read-out: Visual Growth Reduction (%) 14 Days After Application, SETFA
[16] = Triticum aestivum, wheat, spring (Triticum aestivum), read-out: Visual Growth Reduction (%) 14 Days After Application, TRZAS
[17] = Zea mays, maize, corn (Zea mays), read-out: Visual Growth Reduction (%) 14 Days After Application, ZEAMX

How did the “Visual Growth Reduction (%) 10 Days After Application HELAN” value [1] turn out when `COC(=O)c1nc(-c2ccc3sccc3c2)cc(N)c1Cl` [Compound 3.05] was run?
The value was “B (85-94)”.

What about the “Visual Growth Reduction (%) 10 Days After Application SETFA” value [2] of the same molecule?
Its value is “A (95-100)”.

And the “Visual Growth Reduction (%) 10 Days After Application AVEFA” value (wild oats (Avena fatua))?
The value was “C (75-84)”.

What about the “Visual Growth Reduction (%) 10 Days After Application ECHCG” value [3] of the same molecule?
The value was “A (95-100)”.

What about the pest or weed control at 35 g/ha [4, 6] of the same molecule?
Its pest or weed control at 35 g/ha is 85 to 94%.

What about the pest or weed control at 70 g/ha [4, 6] of the same molecule?
The pest or weed control at 70 g/ha was 85 to 94%.

What about the pest or weed control at 280 g/ha [4, 6] of the same molecule?
Its pest or weed control at 280 g/ha is 95 to 100%.

What about the pest or weed control at 35 g/ha [4, 7] of the same molecule?
Its pest or weed control at 35 g/ha is 30 to 44%.

And the pest or weed control at 70 g/ha [4, 7]?
Its pest or weed control at 70 g/ha is 45 to 59%.

And the pest or weed control at 280 g/ha [4, 7]?
The pest or weed control at 280 g/ha was 85 to 94%.

And the pest or weed control at 35 g/ha [4, 8]?
The pest or weed control at 35 g/ha was 0 to 29%.

What about the pest or weed control at 70 g/ha [4, 8] of the same molecule?
Its pest or weed control at 70 g/ha is 0 to 29%.

What about the pest or weed control at 280 g/ha [4, 8] of the same molecule?
The pest or weed control at 280 g/ha was 0 to 29%.

And the pest or weed control at 35 g/ha [4, 9]?
The pest or weed control at 35 g/ha was 75 to 84%.

What about the pest or weed control at 70 g/ha [4, 9] of the same molecule?
The pest or weed control at 70 g/ha was 85 to 94%.

And the pest or weed control at 140 g/ha ([4]; Chenopodium album, lambsquarters (Chenopodium album), 140 g ai/ha, read-out: Visual Growth Reduction (%) 14 Days After Application, CHEAL)?
The pest or weed control at 140 g/ha was 85 to 94%.

What about the pest or weed control at 280 g/ha [4, 9] of the same molecule?
The pest or weed control at 280 g/ha was 85 to 94%.

And the pest or weed control at 35 g/ha [4, 10]?
The pest or weed control at 35 g/ha was 60 to 74%.

And the pest or weed control at 70 g/ha [4, 10]?
The pest or weed control at 70 g/ha was 60 to 74%.

And the pest or weed control at 280 g/ha [4, 10]?
Its pest or weed control at 280 g/ha is 85 to 94%.

And the pest or weed control at 35 g/ha [4, 11]?
Its pest or weed control at 35 g/ha is 0 to 29%.

And the pest or weed control at 70 g/ha [4, 11]?
Its pest or weed control at 70 g/ha is 0 to 29%.

What about the pest or weed control at 280 g/ha [4, 11] of the same molecule?
Its pest or weed control at 280 g/ha is 45 to 59%.

And the pest or weed control at 35 g/ha [5, 12]?
The pest or weed control at 35 g/ha was 0 to 29%.

And the pest or weed control at 70 g/ha [5, 12]?
Its pest or weed control at 70 g/ha is 0 to 29%.

And the pest or weed control at 140 g/ha [5, 12]?
The pest or weed control at 140 g/ha was 0 to 29%.

What about the pest or weed control at 280 g/ha [5, 12] of the same molecule?
The pest or weed control at 280 g/ha was 0 to 29%.

What about the pest or weed control at 35 g/ha [5, 13] of the same molecule?
Its pest or weed control at 35 g/ha is 45 to 59%.

What about the pest or weed control at 70 g/ha [5, 13] of the same molecule?
Its pest or weed control at 70 g/ha is 75 to 84%.

And the pest or weed control at 140 g/ha [5, 13]?
Its pest or weed control at 140 g/ha is 85 to 94%.

What about the pest or weed control at 280 g/ha [5, 13] of the same molecule?
The pest or weed control at 280 g/ha was 85 to 94%.

And the pest or weed control at 35 g/ha [5, 14]?
The pest or weed control at 35 g/ha was 0 to 29%.

What about the pest or weed control at 70 g/ha [5, 14] of the same molecule?
Its pest or weed control at 70 g/ha is 0 to 29%.

And the pest or weed control at 140 g/ha [5, 14]?
The pest or weed control at 140 g/ha was 0 to 29%.

What about the pest or weed control at 280 g/ha [5, 14] of the same molecule?
The pest or weed control at 280 g/ha was 0 to 29%.

And the pest or weed control at 35 g/ha [5, 15]?
The pest or weed control at 35 g/ha was 0 to 29%.

What about the pest or weed control at 70 g/ha [5, 15] of the same molecule?
Its pest or weed control at 70 g/ha is 0 to 29%.

What about the pest or weed control at 140 g/ha [5, 15] of the same molecule?
The pest or weed control at 140 g/ha was 30 to 44%.

And the pest or weed control at 280 g/ha [5, 15]?
The pest or weed control at 280 g/ha was 60 to 74%.

What about the pest or weed control at 35 g/ha [5, 16] of the same molecule?
Its pest or weed control at 35 g/ha is 0 to 29%.

What about the pest or weed control at 70 g/ha [5, 16] of the same molecule?
The pest or weed control at 70 g/ha was 0 to 29%.

And the pest or weed control at 140 g/ha [5, 16]?
Its pest or weed control at 140 g/ha is 0 to 29%.

And the pest or weed control at 280 g/ha [5, 16]?
Its pest or weed control at 280 g/ha is 0 to 29%.

What about the pest or weed control at 35 g/ha [5, 17] of the same molecule?
The pest or weed control at 35 g/ha was 0 to 29%.

What about the pest or weed control at 70 g/ha [5, 17] of the same molecule?
The pest or weed control at 70 g/ha was 0 to 29%.

What about the pest or weed control at 140 g/ha [5, 17] of the same molecule?
Its pest or weed control at 140 g/ha is 45 to 59%.

And the pest or weed control at 280 g/ha [5, 17]?
Its pest or weed control at 280 g/ha is 60 to 74%.
